In assay [1] the test system is BXPC-3. Kind of assay: Cell cycle arrest in human BXPC-3 cells assessed as acumulation at G0/G1 phase by measuring downregulation of CyclinA2 at 4 to 16 uM measured after 48 hrs by Western blot analysis. Particulars: dose 4-16 µM. Format: functional, cell-based. For orientation: In western blotting, separated proteins are transferred to a membrane and probed.
In assay [2] the test system is Mus musculus. Put plainly: Upregulation of caspase 3 in BALB/c mouse allografted with mouse Panc02 cells […] at 50 mg/kg, ip administered every day in combination with gemcitabine at 100 mg/kg measured after 20 days by immunohistochemical analysis. In kind it is functional, organism-based. Particulars: time 20.0 day.
For assay [3], the system named is BXPC-3. Put plainly: Antiproliferative activity against human BXPC-3 cells assessed as cell growth inhibition measured after 48 to 72 hrs by MTT assay. In kind it is functional, cell-based. The conditions noted are these: dose 2-32 µM, time 48-72 hrs. (Tetrazolium dyes change colour on reduction, which living cells bring about.)
The test system of assay [4] is BXPC-3. Put plainly: Induction of apoptosis in human BXPC-3 cells assessed as early apoptotic cells at 4 uM measured after 48 hrs by AnnexinV/propidium iodide staining based flow cytometry (reference value: 1.02 %). In kind it is functional. (In flow cytometry, cells or beads pass a laser one at a time.)
For assay [5], the target named is Bromodomain-containing protein 4 (Homo sapiens, UniProt O60885). Kind of assay: Inhibition of BRD4 (unknown origin) preincubated for 15 mins followed by substrate addition and measured after 1 hr by AlphaScreen assay relative to control.
In assay [6] the test system is Mus musculus. Put plainly: Upregulation of caspase 3 in BALB/c mouse allografted with mouse Panc02 cells […] at 50 mg/kg, ip administered every day measured after 20 days by immunohistochemical analysis. In kind it is functional, organism-based. Particulars: time 20.0 day.
Assay [7] deals with BXPC-3. Kind of assay: Cell cycle arrest in human BXPC-3 cells assessed as acumulation at G0/G1 phase by measuring downregulation of CDK4 at 4 to 16 uM measured after 48 hrs by Western blot analysis. The conditions noted are these: dose 4-16 µM. Format: functional, cell-based.
The test system of assay [8] is BXPC-3. Put plainly: Antiproliferative activity against human BXPC-3 cells assessed as cell growth inhibition at 2 uM measured after 48 to 72 hrs by MTT assay relative to control. Format: functional. The conditions noted are these: time 48-72 hrs, read-out: GI.
Another assay concerns SMMC-7721. Put plainly: Antiproliferative activity against human SMMC-7721 cells assessed as cell growth inhibition at 2 uM measured after 48 to 72 hrs by MTT assay relative to control. In kind it is functional. Particulars: time 48-72 hrs, read-out: GI.
For assay [9], the system named is BXPC-3. Kind of assay: Induction of apoptotic cell death in human BXPC-3 cells at 4 to 16 uM measured after 48 hrs by Live/Dead dye based inverted fluorescence microscopic analysis. Particulars: dose 4-16 µM. In kind it is functional.
Assay [10] has as its system BXPC-3. Put plainly: Cell cycle arrest in human BXPC-3 cells assessed as accumulation at G1/S phase by measuring upregulation of p57 measured after 48 hrs by Western blot analysis. In kind it is functional, cell-based. The conditions noted are these: dose 4-16 µM.
Assay [11] concerns BXPC-3. Put plainly: Cell cycle arrest in human BXPC-3 cells assessed as acumulation at G0/G1 phase by measuring downregulation of CyclinE1 at 4 to 16 uM measured after 48 hrs by Western blot analysis. Particulars: dose 4-16 µM. Format: functional, cell-based.
Assay [12] relates to BXPC-3. Put plainly: Induction of apoptosis in human BXPC-3 cells assessed as downregulation of Bcl-xl at 4 to 16 uM measured after 48 hrs by Western blot analysis. In kind it is functional, cell-based. Particulars: dose 4-16 µM.
The subject of assay [13] is BXPC-3. Put plainly: Induction of apoptosis in human BXPC-3 cells measured after 48 hrs by AnnexinV/propidium iodide staining based flow cytometry. Particulars: dose 4-16 µM. In kind it is functional, cell-based.

The structures appear in SMILES notation. The source made the active and inactive calls. The rule behind the calls is not given here.

One may read the IC50 as the midpoint of a concentration-inhibition curve. A low value points to inhibition by little substance. Take `CCS(=O)(=O)Nc1ccc(Oc2ccccc2F)c(-c2cn(C)c(=O)c3cncn23)c1`: the result in the assay with BXPC-3 [1], in the assay with Mus musculus [2], in the assay with Mus musculus [6], in the assay on BXPC-3 [7], with BXPC-3 [9] and in the assay with BXPC-3 [10] was Active. Moreover, the result in the assay with BXPC-3 [11] and in the assay with BXPC-3 [12] was Active. Moreover, the “growth inhibition (GI)” value in the assay on BXPC-3 [3] is “Dose-dependent effect”. The figures for the Activity in the assay on BXPC-3 [4] and in the assay with BXPC-3 [13] were 1.46% and “Dose-dependent effect”, respectively. Besides, the IC50 in [5] is 35 nM. The inhibition of growth at 2 µM in the assay on BXPC-3 [8] is 38.4%; with SMMC-7721 it was 15.1%.

Source of the values: ChEMBL document CHEMBL4673289, “Design, synthesis and biological evaluation of imidazolopyridone derivatives as novel BRD4 inhibitors” (Bioorg Med Chem, 2021).
